Measured values reported in patent US20100015126A1, “Methods of Binding of Cross-Beta Structures By Chaperones” (priority 2006, published 2010).

Tests used:
[1] = biological target: T1, Escherichia coli HSP70 family member DnaK (Escherichia coli, UniProt P0A6Y8); experiment: Competition ELISA: DnaK binding under influence of ThT and Congo red; conditions: 20 μg/ml DnaK; 1 mM dye
T1 construct: purchased Stressgen (Ann Arbor, Mich., USA) SPP-630
Description: Binding of chaperones to immobilized (misfolded) protein ligands was determined using an enzyme linked immuno sorbent assay (ELISA) approach. For this purpose 50 μl/well of potential ligands at indicated concentrations or coat buffer only for control and background measurement purposes, were coated overnight at 4° C. or coated for 1 h at room temperature, with motion, in 50 mM NaHCO3 pH 9.6 (coat buffer). In general, ligands were coated at 5 μg/ml, unless stated otherwise. For example, BiP binding peptides 6BB# and oxLDL were coated at 50 μg/ml. Native haemoglobin (Sigma-Aldrich, H7379), albumin, IgIV Gammagard and ovalbumin controls were prepared from lyophilized stocks. The controls were prepared by dissolving lyophilized proteins at 1 mg/ml in PBS upon resuspending by pipetting, followed by a 30 minutes period at the roller device, at room temperature. The protein solutions were centrifuged for 10 minutes at 16,000*g and diluted in coat buffer. After coating the plates were washed at least three times with 50 mM Tris-HCl pH 7.3, 150 mM NaCl, 0.1% v/v Tween20, and blocked with Blocking reagent (Roche Diagnostics, Almere, The Netherlands; 11112589001), for 1 h at room temperature, with motion. Plates were washed three times and incubated in triplicate with indicated chaperone dilution series, at 50 μl/well, for 1 h at room temperature, with constant motion. For HSP90, 5 mM DTT is incorporated in the binding buffer (PBS/0.1% Tween20) to avoid unwanted disulfide bond formation of the HSP90. Plates were washed three times and incubated with anti-FLAG antibody (mouse antibody, M2, peroxidase conjugate; Sigma, A-8592) for BiP-FLAG-His, anti-His-tag antibody (Mouse Monoclonal Antibody, Cat. No. 70796, Novagen [0.2 mg/ml]) for HSP60, a 1:1 mix of 500-fold diluted anti-HSP90beta antibodies (Stressgen, SPA-643 [mouse monoclonal IgM], SPA-646 [rabbit polyclonal]) for HSP90 and an anti-DnaK antibody (Stressgen, 023SPA-880D [mouse monoclonal antibody]) for DnaK. After four wash cycles, secondary antibodies were added to the wells when required, 50 μl/well, for 45′ at room temperature, with motion. RAMPO and SWARPO were used at 3000 times dilution. […] In a second experiment with more immobilized misfolded proteins and controls, the detection of bound HSP90 with the mix of two anti-HSP90 antibodies was achieved by mixing 1:1500 SWARPO with 1:3000 RAMPO. After 5 washes with wash buffer followed by two washes with PBS, binding of antibodies was assessed. […] Plates were read at 450 nm. Triplicates were averaged and standard deviations calculated. […] Subsequently, sub-optimal concentrations of chaperones for binding to misfolded protein ligands are determined, and these concentrations are used for inhibition studies. […]

[2] = biological target: T2, human mitochondrial HSP60 (Homo sapiens, UniProt P10809); experiment: Competition ELISA: HSP60 binding under influence of ThT or Congo red; conditions: concentration series of compound
T2 construct: Dr. W. van Eden, Utrecht University; host or cells: E. coli
T2 sequence (P10809 27-573): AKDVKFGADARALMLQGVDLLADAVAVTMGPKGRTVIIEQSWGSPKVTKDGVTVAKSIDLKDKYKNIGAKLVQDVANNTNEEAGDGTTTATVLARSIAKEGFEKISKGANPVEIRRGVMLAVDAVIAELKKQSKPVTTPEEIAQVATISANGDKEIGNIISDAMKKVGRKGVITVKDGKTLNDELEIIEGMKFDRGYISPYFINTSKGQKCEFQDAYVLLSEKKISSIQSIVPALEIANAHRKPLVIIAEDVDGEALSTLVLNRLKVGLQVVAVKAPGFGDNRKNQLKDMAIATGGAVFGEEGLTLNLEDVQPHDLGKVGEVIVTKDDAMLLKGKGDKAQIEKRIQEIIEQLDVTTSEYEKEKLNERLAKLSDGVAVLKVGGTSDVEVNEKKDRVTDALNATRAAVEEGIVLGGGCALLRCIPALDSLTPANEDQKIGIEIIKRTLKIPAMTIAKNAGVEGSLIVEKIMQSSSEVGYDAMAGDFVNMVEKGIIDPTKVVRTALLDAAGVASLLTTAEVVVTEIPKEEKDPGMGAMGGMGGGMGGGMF

immobilized BiP = biological target: T3, immobilized BiP (Homo sapiens, UniProt P11021); experiment: Depletion of solutions from misfolded proteins using immobilized BiP (ELISA); type: binding; conditions: BiP coated at 5 μg/ml
T3 construct: The human BiP gene except the signal peptide encoding region was obtained from Geneart (Germany); linker […]; made in house; host or cells: HEK 293E cells, transient transfection, PABC674 vector; secreted into the medium
T3 sequence (P11021 19-654): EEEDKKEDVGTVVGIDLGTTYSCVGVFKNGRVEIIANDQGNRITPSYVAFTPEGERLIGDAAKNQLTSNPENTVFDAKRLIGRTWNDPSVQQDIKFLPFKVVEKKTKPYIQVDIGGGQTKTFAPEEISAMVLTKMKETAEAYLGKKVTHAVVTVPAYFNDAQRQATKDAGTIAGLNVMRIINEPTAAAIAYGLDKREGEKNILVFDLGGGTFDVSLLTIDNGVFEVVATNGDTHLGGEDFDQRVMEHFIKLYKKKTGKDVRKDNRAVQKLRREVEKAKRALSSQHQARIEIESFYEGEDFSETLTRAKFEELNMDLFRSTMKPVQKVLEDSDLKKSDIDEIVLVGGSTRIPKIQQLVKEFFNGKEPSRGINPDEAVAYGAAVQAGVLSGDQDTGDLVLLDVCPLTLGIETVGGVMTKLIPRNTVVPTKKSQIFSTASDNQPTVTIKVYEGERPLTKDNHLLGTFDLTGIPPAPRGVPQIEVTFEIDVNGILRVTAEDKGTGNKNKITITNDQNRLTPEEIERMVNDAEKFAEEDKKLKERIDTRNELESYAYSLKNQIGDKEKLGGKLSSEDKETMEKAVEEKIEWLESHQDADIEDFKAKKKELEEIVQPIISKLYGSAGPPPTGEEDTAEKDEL
Description: We analysed whether recombinant human BiP with a C-terminal FLAG-tag and His-tag can be applied for depleting solutions from misfolded proteins comprising crossbeta structure.
BiP was coated at a concentration of 5 μg/ml at Greiner Microlon high-binding plates, for 1 h at room temperature with motion. As a negative control buffer was coated. ELISAs were performed essentially as described before. […] All binding buffers were PBS/0.1% (v/v) Tween20. Binding of dOVA was assayed using monoclonal anti-chicken egg albumin antibody (Sigma, A6075, 1:10.000 dilution) and RAMPO (Dako Cytomation, P0260, 1:3.000). […] Background signals obtained with buffer coated wells that were subsequently overlayed with protein solutions (see below), were subtracted from signals obtained with wells with coated BiP.

T1 sequence (P0A6Y8 whole entry): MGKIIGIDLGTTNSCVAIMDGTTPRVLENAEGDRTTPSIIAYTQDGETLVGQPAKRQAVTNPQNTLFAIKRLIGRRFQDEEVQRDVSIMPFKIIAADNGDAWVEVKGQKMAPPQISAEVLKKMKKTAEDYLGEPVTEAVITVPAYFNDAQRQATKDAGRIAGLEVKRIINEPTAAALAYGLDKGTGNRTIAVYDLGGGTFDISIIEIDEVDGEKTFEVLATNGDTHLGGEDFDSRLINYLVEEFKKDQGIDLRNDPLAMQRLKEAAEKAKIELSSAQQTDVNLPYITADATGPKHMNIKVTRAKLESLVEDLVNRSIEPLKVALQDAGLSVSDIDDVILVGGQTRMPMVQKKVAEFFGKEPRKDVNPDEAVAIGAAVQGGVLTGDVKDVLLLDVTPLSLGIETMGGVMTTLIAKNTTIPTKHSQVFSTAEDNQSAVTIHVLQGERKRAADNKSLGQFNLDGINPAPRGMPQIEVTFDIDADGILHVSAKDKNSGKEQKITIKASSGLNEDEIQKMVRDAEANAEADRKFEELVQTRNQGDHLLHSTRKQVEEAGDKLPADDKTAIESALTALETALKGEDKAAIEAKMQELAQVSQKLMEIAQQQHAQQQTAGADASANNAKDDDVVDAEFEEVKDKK

Row | Compound | Binding of DnaK to immobilized HbAGE under influence of compound [1] | Binding of DnaK to immobilized dIgIV-86 under influence of compound [1] | Binding of HSP60 to Aβ42 under influence of compound ([2]; 10 or 30 μg/ml HSP60) | Binding of HSP60 to BSA-AGE under influence of compound ([2]; 10 or 30 μg/ml HSP60) | Binding of HSP60 to misfolded IgIV (dIgIV-86) under influence of compound ([2]; 10 μg/ml HSP60) | Concentration at which binding to immobilized BiP is already maximum (immobilized BiP) [µg/mL] | Extraction from solution by immobilized BiP (immobilized BiP; 1, 10, 100 μg/ml misfolded protein)
1 | Nc1c(/N=N/c2ccc(-c3ccc(/N=N/c4cc(S(=O)(=O)O)c5ccccc5c4N)cc3)cc2)cc(S(=O)(=O)O)c2ccccc12 [Congo red] | inhibit | inhibit | inhibit | inhibited |  |  | 
2 | Cc1ccc2c(c1)sc(-c1ccc(N(C)C)cc1)[n+]2C.[Cl-] [ThT, Thioflavin T] | inhibit | inhibit | inhibit |  | stimulates |  | 
3 | HbAGE: human haemoglobin glycated with glucose-6-phosphate for 75 weeks |  |  |  |  |  | 1 | extracted specifically by BiP to an even higher extent
